From ChEMBL document CHEMBL1201862, “PubChem BioAssay data set” (2004)
Activity calls are given as the source filed them.

Experiments:
[1] = Counterscreen for AddAB inhibitors: absorbance-based bacterial cell-based high throughput dose response assay for inhibitors of bacterial viability. [Related pubchem assays (depositor defined):AID435030, AID449728, AID449731, AID488942, AID488955, AID488956]; assay type: functional
[2] = target: T1, Exodeoxyribonuclease V (Escherichia coli (strain K12), UniProt P04993+P07648+P08394); assay: RecBCD inhibition via phage-restricted bacterial growth – absorbance, V66 E. coli, mutant T4 phage, counter-screen for AddAB inhibitor project, dose response (AID 492957); assay type: functional, cell-based, Escherichia coli str. K-12 substr. MG1655
T1 sequence (P04993 whole entry): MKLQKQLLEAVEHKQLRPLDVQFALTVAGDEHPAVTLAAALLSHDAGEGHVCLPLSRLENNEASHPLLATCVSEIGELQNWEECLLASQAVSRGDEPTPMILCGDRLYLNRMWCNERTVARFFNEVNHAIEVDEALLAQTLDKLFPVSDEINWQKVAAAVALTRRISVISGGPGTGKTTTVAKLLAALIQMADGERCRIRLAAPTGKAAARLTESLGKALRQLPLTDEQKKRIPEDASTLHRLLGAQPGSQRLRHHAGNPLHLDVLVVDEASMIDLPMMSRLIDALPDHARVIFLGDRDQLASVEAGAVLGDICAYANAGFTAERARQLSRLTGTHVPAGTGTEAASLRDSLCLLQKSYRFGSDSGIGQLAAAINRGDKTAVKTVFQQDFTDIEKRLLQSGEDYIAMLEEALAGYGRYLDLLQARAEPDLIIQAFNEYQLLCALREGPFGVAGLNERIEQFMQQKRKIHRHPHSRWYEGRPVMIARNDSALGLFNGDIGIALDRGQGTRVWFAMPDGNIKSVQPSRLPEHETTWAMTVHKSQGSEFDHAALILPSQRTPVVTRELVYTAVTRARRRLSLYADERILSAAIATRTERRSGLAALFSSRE
T1 sequence (P07648 whole entry): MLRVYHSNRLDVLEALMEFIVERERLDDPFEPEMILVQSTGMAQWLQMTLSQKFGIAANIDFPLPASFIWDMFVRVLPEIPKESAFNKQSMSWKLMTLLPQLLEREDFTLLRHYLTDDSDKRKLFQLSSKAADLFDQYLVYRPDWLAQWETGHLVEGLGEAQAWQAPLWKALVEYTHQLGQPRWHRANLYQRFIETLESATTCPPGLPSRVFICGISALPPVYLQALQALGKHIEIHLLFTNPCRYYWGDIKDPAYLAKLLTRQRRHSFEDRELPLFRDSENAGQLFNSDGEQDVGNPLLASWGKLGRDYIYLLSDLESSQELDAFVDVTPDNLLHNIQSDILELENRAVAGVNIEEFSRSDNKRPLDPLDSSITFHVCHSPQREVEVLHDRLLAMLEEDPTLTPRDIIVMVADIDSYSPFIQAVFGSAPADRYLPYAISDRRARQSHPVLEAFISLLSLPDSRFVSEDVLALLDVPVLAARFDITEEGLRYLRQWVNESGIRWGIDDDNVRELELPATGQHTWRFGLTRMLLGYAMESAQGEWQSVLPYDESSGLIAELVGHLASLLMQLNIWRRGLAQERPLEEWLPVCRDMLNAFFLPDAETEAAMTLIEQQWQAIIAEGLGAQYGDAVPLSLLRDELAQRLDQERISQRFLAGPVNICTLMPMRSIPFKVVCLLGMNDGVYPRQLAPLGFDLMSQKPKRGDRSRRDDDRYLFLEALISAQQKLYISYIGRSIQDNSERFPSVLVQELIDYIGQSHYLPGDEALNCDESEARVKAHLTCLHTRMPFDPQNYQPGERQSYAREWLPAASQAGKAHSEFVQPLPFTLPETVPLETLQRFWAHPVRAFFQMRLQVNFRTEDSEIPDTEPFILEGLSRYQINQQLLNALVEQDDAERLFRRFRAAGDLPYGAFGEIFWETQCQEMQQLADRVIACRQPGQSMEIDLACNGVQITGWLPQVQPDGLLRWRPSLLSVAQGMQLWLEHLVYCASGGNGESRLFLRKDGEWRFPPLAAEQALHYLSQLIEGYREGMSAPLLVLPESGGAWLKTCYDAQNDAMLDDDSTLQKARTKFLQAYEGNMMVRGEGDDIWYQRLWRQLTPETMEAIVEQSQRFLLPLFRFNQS
T1 sequence (P08394 whole entry): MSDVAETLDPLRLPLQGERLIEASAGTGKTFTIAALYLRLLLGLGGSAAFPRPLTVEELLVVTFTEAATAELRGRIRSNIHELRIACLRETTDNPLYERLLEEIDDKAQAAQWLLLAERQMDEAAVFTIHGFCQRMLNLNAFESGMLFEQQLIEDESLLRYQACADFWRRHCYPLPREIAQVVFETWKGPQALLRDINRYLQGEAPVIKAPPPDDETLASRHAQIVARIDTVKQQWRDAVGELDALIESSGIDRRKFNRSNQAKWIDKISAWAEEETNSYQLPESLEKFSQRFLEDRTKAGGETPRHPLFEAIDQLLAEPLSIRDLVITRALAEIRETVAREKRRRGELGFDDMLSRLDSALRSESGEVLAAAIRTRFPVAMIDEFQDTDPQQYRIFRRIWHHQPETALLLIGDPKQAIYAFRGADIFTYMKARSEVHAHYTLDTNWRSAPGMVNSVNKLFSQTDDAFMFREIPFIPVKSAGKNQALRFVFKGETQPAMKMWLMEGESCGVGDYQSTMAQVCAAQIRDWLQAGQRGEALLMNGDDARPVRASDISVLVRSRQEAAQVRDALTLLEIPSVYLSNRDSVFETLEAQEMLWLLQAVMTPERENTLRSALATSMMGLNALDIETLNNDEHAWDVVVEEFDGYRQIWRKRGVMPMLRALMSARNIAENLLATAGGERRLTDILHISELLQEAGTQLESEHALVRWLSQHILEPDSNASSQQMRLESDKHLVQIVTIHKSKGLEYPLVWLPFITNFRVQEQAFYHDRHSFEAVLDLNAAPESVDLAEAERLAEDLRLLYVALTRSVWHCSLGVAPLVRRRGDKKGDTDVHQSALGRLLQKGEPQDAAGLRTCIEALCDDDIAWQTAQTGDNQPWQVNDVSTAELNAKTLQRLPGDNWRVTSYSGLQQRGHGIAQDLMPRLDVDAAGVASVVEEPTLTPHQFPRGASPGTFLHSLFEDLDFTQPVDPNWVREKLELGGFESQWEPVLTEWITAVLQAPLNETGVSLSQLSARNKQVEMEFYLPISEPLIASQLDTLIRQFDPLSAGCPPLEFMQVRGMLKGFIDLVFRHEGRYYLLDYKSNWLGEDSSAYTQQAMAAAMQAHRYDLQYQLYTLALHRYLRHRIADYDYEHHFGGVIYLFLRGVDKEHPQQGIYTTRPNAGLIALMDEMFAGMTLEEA

[3] = target: Troponin, cardiac muscle (Homo sapiens, UniProt P19429+P45379+P63316); assay: Fluorescence-based biochemical high throughput dose response assay for activators of the calcium sensitivity of cardiac Regulated Thin Filaments (RTF). [Related pubchem assays (depositor defined):AID493008, AID493018, AID504382, AID504383]; assay type: protein-complex assay
[4] = target: T2, Ubiquitin-conjugating enzyme E2 N (Homo sapiens, UniProt P61088); assay type: functional;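 further: Dose-response confirmation in a TR-FRET assay detecting UBC13-driven polyubiquitin chain formation, inhibition measured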
T2 sequence (P61088 whole entry): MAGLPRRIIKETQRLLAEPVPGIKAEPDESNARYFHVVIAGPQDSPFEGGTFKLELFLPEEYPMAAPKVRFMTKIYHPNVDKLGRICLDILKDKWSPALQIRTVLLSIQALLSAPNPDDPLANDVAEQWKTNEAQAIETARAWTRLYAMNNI

[5] = target: T3, E3 ubiquitin-protein ligase XIAP (Homo sapiens, UniProt P98170); assay: small molecules displacing peptide from XIAP – biochemical, IAP family, fluorescence polarization (AID 1018); assay type: functional
[6] = target: T3, E3 ubiquitin-protein ligase XIAP; assay: Counter Screen using XIAP-Bir3 for Chemical Antagonists of Bir1/2 domains of IAP-family anti-apoptotic proteins. [Related pubchem assays (depositor defined):AID1018, AID1449, AID1514, AID1638, AID1749, AID1750, AID488957, AID488963]
[7] = MIN6 cell viability loss – mouse insulinoma, cytotoxicity control, dose response (AID 2122); assay type: functional;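 further: confirmatory high-throughput counterscreen run to flag cytotoxic compounds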
[8] = decrease of insulin promoter-GFP reporter – imaging, high-content screening, mouse beta cells (AID 1628); assay type: functional; conditions: MIN6
[9] = tested on: Vero; assay: cells; assay type: functional, cell-based; conditions: Chlorocebus sabaeus
[10] = target: Nucleotide-binding oligomerization domain-containing protein 2 (Homo sapiens, UniProt Q9HC29); assay: inhibition of NOD2-driven NF-kB reporter – cell-based, luminescence, uHTS, HEK293 (AID 1566); assay type: functional
[11] = tested on: HEK293; assay: cells; assay type: functional, cell-based; conditions: Homo sapiens
[12] = loss of viability in HepG2 cells – cell-based, CellTiter-Glo, cherry-picked, cytotoxicity control for Shn3 inhibitor project, dose response (AID 624134); assay type: functional
[13] = reduction of Shn3 3'UTR-driven luciferase in osteoblasts – cell-based, Clone20 osteoblasts, firefly luciferase, cherry-picked, dose response (AID 624132); assay type: functional;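 further: firefly luciferase luminescence from reporter carrying the Shn3 3'UTR in osteoblasts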
[14] = tested on: HEK293; assay: cells; assay type: functional, cell-based; conditions: Homo sapiens; remark: listed apart in the source
[15] = tested on: HEK293; assay: cells; assay type: functional, cell-based; conditions: Homo sapiens; remark: listed apart in the source
[16] = tested on: HEK293; assay: inhibition of NOD1-driven NF-kB reporter – cell-based, luminescence, uHTS, primary screen (AID 1578); assay type: functional; conditions: Homo sapiens
[17] = non-specific 3'UTR reporter inhibition in Clone20-Shn3RL – cell-based, Renilla luciferase, cherry-picked, counter-screen for Shn3 inhibitor project, dose response (AID 624133); assay type: functional
[18] = tested on: HEK293; assay: NOD2 signaling inhibitors in MDP-stimulated cells, cell-based, uHTS, luminescence (AID 2001); assay type: functional; conditions: Homo sapiens
[19] = target: T4, Nucleotide-binding oligomerization domain-containing protein 1 (Homo sapiens, UniProt Q9Y239); assay: blockers of NOD1 pathway activity – revised, SAR follow-up (AID 2333); assay type: functional
T4 sequence (Q9Y239 whole entry): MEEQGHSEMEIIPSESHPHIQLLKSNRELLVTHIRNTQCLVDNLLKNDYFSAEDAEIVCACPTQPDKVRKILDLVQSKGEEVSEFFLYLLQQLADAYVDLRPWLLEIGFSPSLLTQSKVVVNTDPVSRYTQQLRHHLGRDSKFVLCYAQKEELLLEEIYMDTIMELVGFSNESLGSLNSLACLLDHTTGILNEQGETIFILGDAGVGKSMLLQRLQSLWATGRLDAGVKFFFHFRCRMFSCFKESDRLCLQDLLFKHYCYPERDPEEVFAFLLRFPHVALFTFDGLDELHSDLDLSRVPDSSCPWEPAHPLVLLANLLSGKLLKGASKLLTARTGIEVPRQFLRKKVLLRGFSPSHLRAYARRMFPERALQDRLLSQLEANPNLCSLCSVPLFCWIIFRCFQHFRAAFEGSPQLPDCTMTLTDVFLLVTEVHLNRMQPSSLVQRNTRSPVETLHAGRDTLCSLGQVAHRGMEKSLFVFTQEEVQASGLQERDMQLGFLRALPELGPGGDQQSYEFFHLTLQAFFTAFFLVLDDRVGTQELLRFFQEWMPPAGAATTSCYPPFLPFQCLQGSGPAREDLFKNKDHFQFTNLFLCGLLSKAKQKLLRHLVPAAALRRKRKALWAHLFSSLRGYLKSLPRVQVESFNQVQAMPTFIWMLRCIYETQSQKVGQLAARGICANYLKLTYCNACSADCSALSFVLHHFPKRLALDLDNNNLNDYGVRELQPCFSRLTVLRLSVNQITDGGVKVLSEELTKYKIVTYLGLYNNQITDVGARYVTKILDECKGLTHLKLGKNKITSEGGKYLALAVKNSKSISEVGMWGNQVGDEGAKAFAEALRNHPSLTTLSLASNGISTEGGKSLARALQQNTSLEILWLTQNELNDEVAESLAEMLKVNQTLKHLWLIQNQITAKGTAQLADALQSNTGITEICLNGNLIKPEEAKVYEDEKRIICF

[20] = target: Tumor necrosis factor (Homo sapiens, UniProt P01375); assay: analog potency on TNFa NF-kB signaling – cell-based, revised, SAR follow-up (AID 2337); assay type: functional
[21] = tested on: HEK293; assay: cells; conditions: Homo sapiens

## NC(=O)c1ccsc1NC(=O)COC(=O)c1ccc([N+](=O)[O-])o1
[1]
  IC50: > 39.5 µM (inactive)
[2]
  IC50: > 119 µM (inactive)

## CCC[C@@H](CN1CCC[C@H]1CN1C(N)=NC[C@@H]1Cc1ccccc1)N1C[C@@H](Cc2ccccc2)N(CCCC2CCCC2)C1=N
[3]
  EC50: > 71.4 µM (inactive)
[4]
  IC50: > 20 µM (inactive)

## COc1cccc(/C(O)=C/C=N/c2cc(C)ccc2O)c1
[5]
  IC50: > 100 µM (not active)
[6]
  IC50: > 100 µM (inactive)

## c1ccc(N2CCN(Cc3ccnc4ccccc34)CC2)cc1
[7]
  IC50: 2.84 µM (active)
[8]
  IC50: 3.42 µM (active)

## C[C@@H](C(=O)N1CCNCC1)n1cc(CCCN=C(N)N)nn1
[3]
  EC50: > 71.5 µM (inactive)

## CC/C(=N\NS(C)(=O)=O)c1ccccc1
[5]
  IC50: > 100 µM (not active)
[6]
  IC50: > 100 µM (inactive)

## Brc1ccc2[nH]c3c(c2c1)CCC3
[9]
  IC50: > 25 µM (active)

## Cc1nc2ccc(NC(=O)c3cccc(S(=O)(=O)N(C)c4ccccc4)c3)cc2s1
[10]
  EC50: 7.35 µM (active)
[11]
  IC50: 9.65 µM (active)
[12]
  AC50: 58.6 µM (active)
[13]
  AC50: 7.6 µM (active)
[14]
  IC50: 15.2 µM (active)
[15]
  IC50: 6.11 µM (active)
[16]
  EC50: 7.57 µM (active)
[17]
  AC50: 12.8 µM (active)
[18]
  IC50: 5.24 µM (active)

## COc1ccc2c(c1)CCc1c(C(=O)Nc3cc(C)n(Cc4ccc(Cl)cc4)n3)noc1-2
[5]
  IC50: > 100 µM (not active)
[6]
  IC50: > 100 µM (inactive)

## CCCOc1ccc(C=NN=C(S)Nc2ccccc2[N+](=O)[O-])c(O)c1
[19]
  IC50: 7.73 µM (active)
[20]
  IC50: 0.88 µM (active)
[21]
  IC50: > 20 µM (inactive)

## C(#Cc1ccccc1)C[N+]1(CC#Cc2cccc3ccccc23)CCOCC1
[7]
  IC50: 2.19 µM (active)
[8]
  IC50: 2.29 µM (active)
